Experimental data: the NIST ThermoML archive (doi:10.1016/j.jct.2005.12.010)

Tests used:
[1] = xn = mol fraction of the nth substance listed; conditions: 101 kPa, Liquid
[2] = 101 kPa, Liquid

CC1CCCC1 [methylcyclopentane] + CCCCO
speed of sound [m/s], [1]
Conditions | 293.15 K | 298.15 K | 303.15 K
x1 = 0.0485 | 1250 | 1233 | 1216
x1 = 0.0993 | 1243 | 1226 | 1208
x1 = 0.1973 | 1231 | 1213 | 1194
x1 = 0.3038 | 1219 | 1200 | 1180
x1 = 0.4036 | 1210 | 1190 | 1169
x1 = 0.5055 | 1202 | – | –
x1 = 0.5078 | – | 1181 | 1160
x1 = 0.6152 | 1195 | 1173 | 1151
x1 = 0.7053 | 1191 | 1169 | 1146
x1 = 0.8132 | 1189 | 1166 | 1143
x1 = 0.9096 | 1190 | 1166 | 1143
x1 = 0.9537 | 1191 | 1168 | 1145
x1 = 1 | 1197 | 1174 | 1150

CC1CCCC1 [methylcyclopentane] + CCCO
speed of sound [m/s], [1]
Conditions | 293.15 K | 298.15 K | 303.15 K
x1 = 0.0475 | 1217 | 1199 | 1182
x1 = 0.0967 | 1211 | 1193 | 1175
x1 = 0.2055 | 1201 | 1182 | 1163
x1 = 0.2984 | 1195 | 1175 | 1155
x1 = 0.4014 | 1189 | 1169 | 1148
x1 = 0.5007 | 1185 | 1164 | 1142
x1 = 0.6133 | 1183 | 1161 | 1139
x1 = 0.7115 | 1183 | 1160 | 1137
x1 = 0.8124 | 1184 | 1161 | 1138
x1 = 0.9073 | 1188 | 1164 | 1141
x1 = 0.9529 | 1191 | 1167 | 1144
x1 = 1 | 1197 | 1174 | 1150

CC1CCCC1 [methylcyclopentane] + CCO
[1]
Conditions | mass density, 293.15 K [kg/m3] | mass density, 298.15 K [kg/m3] | mass density, 303.15 K [kg/m3] | speed of sound, 293.15 K [m/s] | speed of sound, 298.15 K [m/s] | speed of sound, 303.15 K [m/s]
x1 = 0.0475 | 784.54 | 780.2 | 775.84 | 1156 | 1138 | 1121
x1 = 0.0967 | 780 | 775.6 | 771.3 | 1153 | 1135 | 1117
x1 = 0.2055 | 771.61 | 767.12 | 762.58 | 1149 | 1130 | 1111
x1 = 0.2984 | 766.18 | 761.61 | 756.99 | 1150 | 1130 | 1110
x1 = 0.4014 | 761.37 | 756.73 | 752.03 | 1153 | 1132 | 1111
x1 = 0.5007 | 757.5 | 752.79 | 748.03 | 1158 | 1136 | 1114
x1 = 0.6133 | 753.79 | 749.03 | 744.21 | 1163 | 1141 | 1118
x1 = 0.7115 | 751.2 | 746.42 | 741.58 | 1168 | 1146 | 1123
x1 = 0.8124 | 748.98 | 744.19 | 739.34 | 1175 | 1152 | 1129
x1 = 0.9073 | 747.36 | 742.58 | 737.75 | 1183 | 1159 | 1136
x1 = 0.9529 | 746.95 | 742.17 | 737.35 | 1188 | 1164 | 1141
x1 = 1 | 746.64 | 741.94 | 737.21 | 1197 | 1174 | 1150

CCCC(C)O (stereo not given) [pentan-2-ol]
[2]
Conditions | mass density [kg/m3] | speed of sound [m/s] | viscosity [mPa·s]
293.15 K | 809.04 | 1250 | 4.001
298.15 K | 805.01 | 1232 | 3.273
303.15 K | 800.9 | 1214 | 2.774

CCCC(C)O (stereo not given) [pentan-2-ol] + CC1CCCC1
[1], x2 = 0
Conditions | speed of sound [m/s]
293.15 K | 1250
298.15 K | 1232
303.15 K | 1214

CCCO [propan-1-ol]
[2]
Conditions | mass density [kg/m3] | speed of sound [m/s] | viscosity [mPa·s]
293.15 K | 803.59 | 1223 | 2.159
298.15 K | 799.58 | 1206 | 1.915
303.15 K | 795.55 | 1189 | 1.713

CCCO [propan-1-ol] + CC1CCCC1
[1], x2 = 0
Conditions | speed of sound [m/s]
293.15 K | 1223
298.15 K | 1206
303.15 K | 1189

CC(C)O [propan-2-ol]
[2]
Conditions | mass density [kg/m3] | speed of sound [m/s] | viscosity [mPa·s]
293.15 K | 785.07 | 1156 | 2.382
298.15 K | 780.9 | 1139 | 2.045
303.15 K | 776.6 | 1121 | 1.763

CC(C)O [propan-2-ol] + CC1CCCC1
[1], x2 = 0
Conditions | speed of sound [m/s]
293.15 K | 1156
298.15 K | 1139
303.15 K | 1121
